The numbers were not newly measured in patent US20180228856A1, “Antibacterial combination of Basil oil and Taiwan red cypress oil for preventing drug-resistant S. aureus infections and the use thereof” (priority 2017, published 2018), which cites them from elsewhere.

≈ marks a conversion by molar mass, not a printed value. Where only a bound is given, the exact number is not on record here.

For the series, the system named is VISA strain Z172. Particulars: strain characteristic of Z172.

`CN[C@H](CC(C)C)C(=O)N[C@H]1C(=O)N[C@@H](CC(N)=O)C(=O)N[C@H]2C(=O)N[C@H]3C(=O)N[C@H](C(=O)N[C@H](C(=O)O)c4cc(O)cc(O)c4-c4cc3ccc4O)[C@H](O)c3ccc(c(Cl)c3)Oc3cc2cc(c3O[C@@H]2O[C@H](CO)[C@@H](O)[C@H](O)[C@H]2O[C@H]2C[C@](C)(N)[C@H](O)[C@H](C)O2)Oc2ccc(cc2Cl)[C@H]1O` [vancomycin]: the “minimum inhibitory concentration (MIC)” value was 4 µg/mL (≈ 2.76 µM).
As for `CCCCCCCCCC(=O)N[C@@H](Cc1c[nH]c2ccccc12)C(=O)N[C@H](CC(N)=O)C(=O)N[C@@H](CC(=O)O)C(=O)N[C@@H]1C(=O)NCC(=O)N[C@@H](CCCN)C(=O)N[C@@H](CC(=O)O)C(=O)N[C@H](C)C(=O)N[C@@H](CC(=O)O)C(=O)NCC(=O)N[C@H](CO)C(=O)N[C@@H]([C@H](C)CC(=O)O)C(=O)N[C@@H](CC(=O)c2ccccc2N)C(=O)O[C@@H]1C` [daptomycin], the “minimum inhibitory concentration (MIC)” value was > 4 µg/mL.
